Results taken from patent US20230136562A1, “SPIROUREA DERIVATIVES” (Idorsia Pharmaceuticals Ltd, priority 2020, published 2023).
Like-named read-outs stand apart in the source and are kept apart here.

Tested on: primary neuronal cultures from embryonic rat brains
Test: Rat oscillation assay (FLIPR, neuronal calcium oscillations)
Type: cell-based
Conditions: Rattus norvegicus
Description: A) Rat Oscillation Assay:
This assay is a functional phenotypic assay designed to mimic epileptic seizures using primary neuronal cultures from embryonic rat brains, which form a functional neuronal network that generate synchronized intracellular calcium concentration oscillations when cultured at high density in 384-well plate. The epileptic phenotype is induced by incubating the neurons in magnesium-free assay buffer, that results in increased probability of NMDA receptor activation, leading to an increased frequency and amplitude of intracellular calcium oscillations. Once neurons are incubated with the calcium indicator dye Fluo-8 AM (Tebu-bio), neuronal calcium oscillations can be monitored in real time using FLIPR® Tetra (fluorometric plate reader, Molecular Devices). With these recordings, the effect of anti-epileptic drugs can be quantified. The anti-epileptic effect of compounds, which activate directly or indirectly the Kv7 channels can be modulated by the Kv7 channel blocker XE-991. The assay was performed as described previously (Pacico N, Mingorance-Le Meur A. New In Vitro Phenotypic Assay for Epilepsy: Fluorescent Measurement of Synchronized Neuronal Calcium Oscillations. PLoS ONE 9(1) 2014) with modifications described hereafter.
Animal care followed standard procedures in accordance with swiss institutional guidelines. Dissociated neuronal cultures were obtained from cerebral cortices of embryonic Wistar rats at embryonic stage E18 (Charles River). The uterine horns were removed by caesarian surgery from deeply anesthetized rats (Isofurane) and sacrificed by decapitation. The embryos were decapitated by closing forceps. The brains were isolated and dissected one by one in ice-cold PBS (Life Technologies) under optical control using a binocular. Meninges, olfactory bulbs, and basal ganglia were removed. Cortical hemispheres (still including the hippocampus) were cut in small pieces with tweezers and placed on ice in pre-chilled Hibernate-E medium (Life technology). The hemispheres were then incubated in 10 mL of Hibernate-E containing 15 U/mL papain (Worthington) for 25 min at 30° C. with gentle mixing every 10 min. Genomic DNA was then digested by prolonging the incubation during 10 min at 37° C. in presence of 4 U/mL rDNase I (Ambion). The obtained suspension was then centrifuged at 800 g for 5 min and the cell pellet was resuspended in 2 mL Hibernate-E and gently dissociated by pipetting up and down 10 times with a plastic Pasteur pipette resulting in a homogenous cell suspension. This suspension was immediately filtered through a 70 µm cell strainer (MACS® SmartStrainer, Miltenyi), collected in 10 mL Hibernate-E and centrifuged at 800 g for 5 min. The cell pellet was resuspended in Neurobasal medium, supplemented with 2% B-27, 0.5 mM Glutamax-I, 100 U/mL penicillin, 100 µg/mL streptomycin (Life Technologies) and diluted at the final concentration of 300′000 cells/mL. One day before plating the cells, 384-well plates were coated with 25 μL/well of 0.1% poly-L-lysine solution (Sigma), incubated overnight at 37° C., washed two times with sterile distilled water and allowed to dry at room temperature for >2 h. The neurons were seeded at a density of 15′000 cells/well in 50 μL/well in a 384-well black, clear-bottomed plates (Corning) and subsequently maintained in an incubator at 37° C., 5% CO2 and 95% humidity for 8 to 10 days. After 3 and 7 days, 40% of media was renewed under sterile conditions.
Protocol Rat Oscillation Assay
Neurons seeded in the assay plates were washed with Hank's balanced salt solution (HBSS) devoid of Ca^2+ and Mg^2+, supplemented with 20 mM HEPES (Life Technologies) and 2 mM CaCl2 (Sigma), pH 7.4 (hereafter called Assay buffer) using a Biotek EL406 plate washer. Neurons were loaded with 1 μM Fluo-8 AM in Assay buffer for 15 min at 37° C., 5% CO2. […]

[1] = 20 min, AUC of fluorescence measured 20 min after compound addition, read-out: FLIPR: IC50 [nM] 20 min
[2] = Acute phase, ratio of AUC fluorescence before and after compound addition, read-out: FLIPR: IC50 [nM] acute

Q: What does the source list for `CC(NC(=O)NC1CC2(CCC2)C1)c1cccc(OCC(F)(F)F)c1` (racemic) [Example 90, (±)-1-Spiro[3.3]hept-2-yl-3-{1-[3-(2,2,2-trifluoro-ethoxy)-phenyl]-ethyl}-urea]?
A: IC50 [1]: 2.7 nM; IC50 [2]: 4 nM

Q: Which results are given for `COCC(NC(=O)NC1CC2(CCC2)C1)c1cccc(OCC(F)(F)F)c1` (racemic) [Example 91, (±)-1-{2-Methoxy-1-[3-(2,2,2-trifluoro-ethoxy)-phenyl]-ethyl}-3-spiro[3.3]hept-2-yl-urea]?
A: IC50 [1]: 1.4 nM; IC50 [2]: 3.4 nM

Q: `COCC(NC(=O)NC1CC2(CCC2)C1)c1ccnc(OCC(F)(F)F)c1` (racemic) [Example 92, (±)-1-{2-Methoxy-1-[2-(2,2,2-trifluoro-ethoxy)-pyridin-4-yl]-ethyl}-3-spiro[3.3]hept-2-yl-urea] was tested. Which IC50 [1] did it give?
A: 0.8 nM

Q: And the IC50 [2]?
A: 1.3 nM

Q: For `CC(NC(=O)NC1CC2(CCC2)C1)c1ccnc(OCC(F)(F)F)c1` (racemic) [Example 93, (±)-1-Spiro[3.3]hept-2-yl-3-{1-[2-(2,2,2-trifluoro-ethoxy)-pyridin-4-yl]-ethyl}-urea], which IC50 [1] is on record?
A: 2.2 nM

Q: What about the IC50 [2] of the same compound?
A: 1.9 nM

Q: How did the IC50 [1] turn out when `CN(C)CC(NC(=O)NC1CC2(CCC2)C1)c1ccnc(OCC(F)(F)F)c1` (racemic) [Example 94, (±)-1-{2-Dimethylamino-1-[2-(2,2,2-trifluoro-ethoxy)-pyridin-4-yl]-ethyl}-3-spiro[3.3]hept-2-yl-urea] was run?
A: 117 nM

Q: What about the IC50 [2] of the same compound?
A: 197 nM

Q: `CC(NC(=O)NC1CC2(CCC2)C1)c1cc(F)cc(OCC(F)(F)F)c1` (racemic) [Example 95, (±)-1-{1-[3-Fluoro-5-(2,2,2-trifluoro-ethoxy)-phenyl]-ethyl}-3-spiro[3.3]hept-2-yl-urea] was tested. Which IC50 [1] did it give?
A: 48 nM

Q: What about the IC50 [2] of the same compound?
A: 52 nM

Q: Which IC50 [1] does the source give for `CC(NC(=O)NC1CC2(CCC2)C1)c1ccnc(OC(F)(F)F)c1` (racemic) [Example 97, (±)-1-Spiro[3.3]hept-2-yl-3-[1-(2-trifluoromethoxy-pyridin-4-yl)-ethyl]-urea] here?
A: 170 nM

Q: What about the IC50 [2] of the same compound?
A: 53 nM

Q: Which results are given for `CC(NC(=O)NC1CC2(CCC2)C1)c1cccc(OCC(F)(F)F)c1F` (racemic) [Example 98, (±)-1-{1-[2-Fluoro-3-(2,2,2-trifluoro-ethoxy)-phenyl]-ethyl}-3-spiro[3.3]hept-2-yl-urea]?
A: IC50 [1]: 14 nM; IC50 [2]: 11 nM

Q: `CC(NC(=O)NC1CC2(CCC2)C1)c1cc(OCC(F)(F)F)ccc1F` (racemic) [Example 99, (±)-1-{1-[2-Fluoro-5-(2,2,2-trifluoro-ethoxy)-phenyl]-ethyl}-3-spiro[3.3]hept-2-yl-urea] was tested. Which IC50 [1] did it give?
A: 20 nM

Q: And the IC50 [2]?
A: 32 nM

Q: Which IC50 [1] does the source give for `CC(NC(=O)NC1CC2(CCC2)C1)c1ccnc(OC(F)F)c1` (racemic) [Example 100, (±)-1-[1-(2-Difluoromethoxy-pyridin-4-yl)-ethyl]-3-spiro[3.3]hept-2-yl-urea] here?
A: 3.6 nM

Q: And the IC50 [2]?
A: 5.9 nM

Q: Which results are given for `COCC(Oc1cccc(CNC(=O)NC2CC3(CCC3)C2)n1)C(F)(F)F` (racemic) [Example 104, (±)-1-Spiro[3.3]hept-2-yl-3-[6-(2,2,2-trifluoro-1-methoxymethyl-ethoxy)-pyridin-2-ylmethyl]-urea]?
A: IC50 [1]: 295 nM; IC50 [2]: 292 nM

Q: `CN(C)CC(Oc1cccc(CNC(=O)NC2CC3(CCC3)C2)n1)C(F)(F)F` (racemic) [Example 105, (±)-1-[6-(1-Dimethylaminomethyl-2,2,2-trifluoro-ethoxy)-pyridin-2-ylmethyl]-3-spiro[3.3]hept-2-yl-urea] was tested. Which IC50 [1] did it give?
A: 261 nM

Q: What about the IC50 [2] of the same compound?
A: 278 nM

Q: What does the source list for `CN(C)CC(Oc1cc(CNC(=O)NC2CC3(CCC3)C2)ccn1)C(F)(F)F` (racemic) [Example 106, (±)-1-[2-(1-Dimethylaminomethyl-2,2,2-trifluoro-ethoxy)-pyridin-4-ylmethyl]-3-spiro[3.3]hept-2-yl-urea]?
A: IC50 [1]: 757 nM; IC50 [2]: 535 nM

Q: How did the IC50 [1] turn out when `COCC(Oc1cc(CNC(=O)NC2CC3(CCC3)C2)ccn1)C(F)(F)F` (racemic) [Example 107, (±)-1-Spiro[3.3]hept-2-yl-3-[2-(2,2,2-trifluoro-1-methoxymethyl-ethoxy)-pyridin-4-ylmethyl]-urea] was run?
A: 91 nM

Q: What about the IC50 [2] of the same compound?
A: 72 nM

Q: What does the source list for `CC(Oc1cc(F)cc(CNC(=O)NC2CC3(CCC3)C2)c1)C(F)(F)F` (racemic) [Example 110, (±)-1-[3-Fluoro-5-(2,2,2-trifluoro-1-methyl-ethoxy)-benzyl]-3-spiro[3.3]hept-2-yl-urea]?
A: IC50 [1]: 62 nM; IC50 [2]: 88 nM

Q: With `CC(Oc1cccc(C2(NC(=O)NC3CC4(CCC4)C3)CC2)c1)C(F)(F)F` (racemic) [Example 111, (±)-1-Spiro[3.3]hept-2-yl-3-{1-[3-(2,2,2-trifluoro-1-methyl-ethoxy)-phenyl]-cyclopropyl}-urea] as the compound, how does the IC50 [1] read?
A: 34 nM

Q: And the IC50 [2]?
A: 26 nM

Q: Which IC50 [1] does the source give for `CC(NC(=O)NC1CC2(CCC2)C1)c1ccc(F)c(OCC(F)(F)F)c1` (racemic) [Example 113, (±)-1-{1-[4-Fluoro-3-(2,2,2-trifluoro-ethoxy)-phenyl]-ethyl}-3-spiro[3.3]hept-2-yl-urea] here?
A: 22 nM

Q: What about the IC50 [2] of the same compound?
A: 33 nM

Q: How did the IC50 [1] turn out when `CC(Oc1ccnc(CNC(=O)NC2CC3(CCC3)C2)c1)C(F)(F)F` (racemic) [Example 117, (±)-1-Spiro[3.3]hept-2-yl-3-[4-(2,2,2-trifluoro-1-methyl-ethoxy)-pyridin-2-ylmethyl]-urea] was run?
A: 286 nM

Q: What about the IC50 [2] of the same compound?
A: 195 nM

Q: With `CC(Oc1nccc(CNC(=O)NC2CC3(CCC3)C2)n1)C(F)(F)F` (racemic) [Example 118, (±)-1-Spiro[3.3]hept-2-yl-3-[2-(2,2,2-trifluoro-1-methyl-ethoxy)-pyrimidin-4-ylmethyl]-urea] as the compound, how does the IC50 [1] read?
A: 81 nM

Q: What about the IC50 [2] of the same compound?
A: 116 nM

Q: Which results are given for `CC(Oc1cc(CNC(=O)NC2CC3(CC3)C2)ncn1)C(F)(F)F` (racemic) [Example 120, (±)-1-Spiro[2.3]hex-5-yl-3-[6-(2,2,2-trifluoro-1-methyl-ethoxy)-pyrimidin-4-ylmethyl]-urea]?
A: IC50 [1]: 151 nM; IC50 [2]: 136 nM

Q: For `CC(NC(=O)NC1CC2(CC2)C1)c1cccc2c1OC(F)(F)O2` (racemic) [Example 121, (±)-1-[1-(2,2-Difluoro-benzo[1,3]dioxol-4-yl)-ethyl]-3-spiro[2.3]hex-5-yl-urea], which IC50 [1] is on record?
A: 1210 nM

Q: And the IC50 [2]?
A: 990 nM

Q: What does the source list for `O=C(NC1CC2(CC2)C1)NC(CO)c1cc(OCC(F)(F)F)ncn1` (racemic) [Example 122, (±)-1-{2-Hydroxy-1-[6-(2,2,2-trifluoro-ethoxy)-pyrimidin-4-yl]-ethyl}-3-spiro[2.3]hex-5-yl-urea]?
A: IC50 [1]: 658 nM; IC50 [2]: 339 nM

Q: `Cc1nc(OCC(F)(F)F)cc(C(CO)NC(=O)NC2CC3(CC3)C2)n1` (racemic) [Example 123, (±)-1-{2-Hydroxy-1-[2-methyl-6-(2,2,2-trifluoro-ethoxy)-pyrimidin-4-yl]-ethyl}-3-spiro[2.3]hex-5-yl-urea] was tested. Which IC50 [1] did it give?
A: 367 nM

Q: And the IC50 [2]?
A: 395 nM

Q: What does the source list for `CC(NC(=O)NC1CC2(CC2)C1)c1cccc(OC(F)F)c1` (racemic) [Example 124, (±)-1-[1-(3-Difluoromethoxy-phenyl)-ethyl]-3-spiro[2.3]hex-5-yl-urea]?
A: IC50 [1]: 280 nM; IC50 [2]: 69 nM

Q: For `CC(NC(=O)NC1CC2(CC2)C1)c1cccc(S(F)(F)(F)(F)F)c1` (racemic) [Example 127, (±)-1-(1-(3-(pentafluoro-λ^6-sulfaneyl)phenyl)ethyl)-3-(spiro[2.3]hexan-5-yl)urea], which IC50 [1] is on record?
A: 22 nM

Q: And the IC50 [2]?
A: 19 nM
